Measured values: PMC3328449, “Inhibition of Diacylglycerol–Sensitive TRPC Channels by Synthetic and Natural Steroids” (PLoS ONE, 2012)

Biological target: T1, mTRPC4ß (Mus musculus, UniProt Q9QUQ5)
T1 construct: expressed in transfected cells
T1 sequence (Q9QUQ5 1-890 isoform Q9QUQ5-2): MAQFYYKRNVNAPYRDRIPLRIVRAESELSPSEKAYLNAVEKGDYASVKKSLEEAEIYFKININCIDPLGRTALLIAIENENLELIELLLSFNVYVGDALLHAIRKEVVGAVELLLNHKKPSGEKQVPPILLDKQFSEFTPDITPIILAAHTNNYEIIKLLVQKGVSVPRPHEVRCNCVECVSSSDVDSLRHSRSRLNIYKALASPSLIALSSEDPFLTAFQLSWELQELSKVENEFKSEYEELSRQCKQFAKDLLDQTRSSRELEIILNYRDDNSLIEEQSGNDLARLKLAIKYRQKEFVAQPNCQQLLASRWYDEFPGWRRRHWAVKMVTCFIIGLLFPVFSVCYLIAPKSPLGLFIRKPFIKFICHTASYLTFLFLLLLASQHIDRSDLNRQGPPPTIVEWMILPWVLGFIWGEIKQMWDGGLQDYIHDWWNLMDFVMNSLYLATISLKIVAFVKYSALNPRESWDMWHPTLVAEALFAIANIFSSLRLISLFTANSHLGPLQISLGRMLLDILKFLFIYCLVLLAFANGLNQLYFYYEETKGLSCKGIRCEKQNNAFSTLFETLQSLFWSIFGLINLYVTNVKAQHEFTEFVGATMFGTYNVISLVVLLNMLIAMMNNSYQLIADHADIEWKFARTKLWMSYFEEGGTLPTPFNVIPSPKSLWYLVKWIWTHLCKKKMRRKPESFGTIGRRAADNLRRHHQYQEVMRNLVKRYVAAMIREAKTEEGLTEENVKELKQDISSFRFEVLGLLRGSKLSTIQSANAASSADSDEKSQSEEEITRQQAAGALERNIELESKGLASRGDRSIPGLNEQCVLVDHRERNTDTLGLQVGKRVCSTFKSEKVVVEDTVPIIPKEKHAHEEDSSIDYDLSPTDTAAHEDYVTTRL
Test: Whole-cell patch clamp, TRPC4 currents
Format: cell-based
Conditions: 10 µM; not separable from current run-down
Protocol: Cells were grown at 37°C in a humidified atmosphere (5% or 7% CO2) under standard cell culture conditions. Stable human embryonic kidney (HEK) cell lines expressing recombinant mTRPC4ß (GenBank accession number AAC05178); mTRPC5 (GenBank accession number NM_009428) or hTRPC6 (GenBank accession number AF080394) under the control of a tetracycline-inducible promoter were generated using the Flp-In T-Rex (FITR) system (Invitrogen, Karlsruhe, Germany). TRPC4/5/6 HEK-FITR cells were maintained in Dulbecco's modified eagle medium (DMEM, with glutaMAX I, 4.5 g/l glucose and […] sodium pyruvate) supplemented with 10% (v/v) fetal bovine serum (Biochrom, Berlin, Germany), 1 mM glutamine, 1 mM MEM sodium pyruvate, 40 µg/ml hygromycin (50 µg/ml for mTRPC5 HEK-FITR cells), and 15 µg/ml blasticidine HCl. Channel expression was induced by supplementing the growth medium for 18–24 h with 1 µg/ml doxycycline.
The whole-cell patch clamp technique was employed to measure ion currents from single cells. […]
Cells grown on poly-L-lysine-coated coverslips were continuously superfused with extracellular solution and substances were applied using an ALA BPS-8 perfusion system (ALA Scientific Instruments, Westbury, USA). […] Cells were held at −70 mV, and current-voltage (I–V) relationships were routinely measured every 2 or 3 s by applying voltage ramps (180 ms) from −100 mV to +80 mV. […]

Effect on TRPC4 currents: apparently small, irreversible
SMILES: C#C[C@]1(OC(C)=O)CC[C@H]2[C@@H]3CCC4=CC(=NO)CC[C@@H]4[C@H]3CC[C@@]21CC (mixture of isomers) [norgestimate]
